Reference: patent US20240294466A1, “SODIUM N-(8-(2- HYDROXYBENZOYL)AMINO)CAPRYLATE P[…] A” (Novo Nordisk A/S, priority 2021, published 2024)
Like-named read-outs stand apart in the source and are kept apart here.

What was measured:
[1] = XRPD FWHM of the peak at 8.7±0.2° 2θ (degree of crystal imperfections), method 1; type: physicochemical; details: for FWHM (automatic mode), XRPD peak around 8.7 ± 0.2° 2θ, Before: before heat treatment
Description: (§1) XRPD was performed using a Malvern Panalytical Empyrean diffractometer at ambient conditions. The diffraction pattern was measured at room temperature using an Empyrean Cu LFF HR (45 kV/40 mA) source and PIXcel3D-Medipix3 1×1 detector. The measurement was performed in the range of 2-40° 20 using a scan speed of 0.067335° 2θ/s and a step size of 0.0262606° 2θ. The samples were measured in transmission mode and with a spinner revolution time of 1 second. Approximately 200 mg of sample were placed between two sheets of Kapton Polyimide Thin-film. The measurements were performed using a Soller slit of 0.04 radians and a fixed divergence slit of 0.5° on the incident beam, and a 3 mm Anti scatter slit and a Soller slit of 0.04 radians in the diffracted beam.
The degree of crystal imperfections was assessed by use of the FWHM as more crystal imperfections might cause peak broadening and lower peak height, which leads to higher FWHM values due to fewer lattice planes with identical orientation contributing to the diffraction peak. Oppositely, in the absence of crystal imperfections, lattice planes with identical orientation increase and result in narrower and higher diffraction peaks leading to smaller FWHM values. The FWHM was calculated using the characteristic peak at 8.7±0.2° 2θ by finding the apex of the peak and measuring the height of the peak applying the x-axis as the baseline (automatic mode) (see FIG. 11) or applying a baseline spanning the two surrounding troughs (manual mode) (see FIG. 12). This value is then divided in half to find the half height. Hereafter the width of the peak at that half height is measured and reported in ° 2θ. Alternatively, the peak at 6.0±0.2° 2θ may also be used to calculate the FWHM.
(§2) Samples from a batch of SNAC polymorphic form A (Batch 5) with a FWHM of 0.97° 2θ (automatic mode) and a moisture uptake of 1.98% at 65% RH from the beginning were heated to 90, 100, 110, 120, 130, and 140° C., respectively, in a tray oven. The samples were exposed to their respective temperatures for up to 72 h. The sample size was small enough to ensure that the samples equilibrated completely, within a few of minutes, to the oven temperature. Samples were taken during the 72 h of elevated temperature exposure and subjected to XRPD measurements in accordance with method 1 to determine the polymorphic form and impact on crystal imperfections using FWHM with the x-axis as the baseline (automatic mode).
(§3) Samples from different batches of SNAC polymorphic form A were subjected to a heat treatment in a tray oven and the sample size was small enough to ensure that the samples equilibrated completely and within a couple of minutes to the oven temperature. Samples were taken from the batches before the heat treatment and after the heat treatment and subjected to XRPD measurements in accordance with method 1 to determine the polymorphic form and impact on crystal imperfections using FWHM with the x-axis as the baseline (auto mode). Furthermore, samples were also subjected to DVS measurements in accordance with method 3 to determine the impact of the heat treatment on the hygroscopicity.

[2] = Dynamic vapour sorption (DVS) moisture uptake, method 3; type: physicochemical; details: for Moisture absorption at 65% RH, Before: before heat treatment
Description: Moisture sorption/desorption data were measured by a Dynamic Vapour Sorption Advantage 1 from Surface Measurement Systems. Prior to analysis the samples were dried for up to about 48 h in desiccators containing phosphorus pentoxide. Approximately 20 mg of sample was placed into a balance pan and loaded into the instrument and the sample was then further dried for a minimum of 500 min in the instrument at 0% RH using a nitrogen purge. The resulting sample weight after the further drying was assigned as the 0% start weight and all weight gains and losses was calculated relative to this start weight. Sorption and desorption isotherms were collected over a range from 0 to 90% relative humidity (RH) using a nitrogen purge at 25° C. The threshold for equilibrium used for analysis was 0.002 to 0.0005 dm/dt.
Furthermore, samples were taken after 24 h of exposure at the indicated elevated temperatures and were subjected to dynamic vapor sorption measurements in accordance with method 3 to determine the hygroscopicity. The moisture uptake was measured at 65% RH. The hygroscopicity is decreased as the moisture absorbed at 65% RH decreases when exposing SNAC polymorphic form A to elevated temperatures for 24 h.

[3] = XRPD with moisture chamber: relative humidity for onset of conversion of form A to trihydrate form F, method 2; type: physicochemical; details: increasing RH at ambient conditions
From the text: The moisture chamber allows for controlling the humidity and temperature of the samples during XRPD measurements.
Samples from different batches of SNAC polymorphic form A were subjected to increasing levels of relative humidity at ambient conditions inside a humidity chamber with the possibility of simultaneous determination of the polymorphic form in accordance with the XRPD method 2. The diffractograms were visually inspected for the appearance of characteristic diffraction peaks for the SNAC polymorphic form F in order to determine at which relative humidity polymorphic conversion of form A to F started.

[4] = Polymorphic form determined by XRPD, method 1; type: physicochemical; details: after heat treatment 150° C. for 1 h
Description: as §1
The polymorphic form of the sample was determined by comparison of the diffractogram obtained for the sample with reference diffractograms for the SNAC polymorphs and solvates.
as §2, §3

[5] = Dynamic vapour sorption (DVS) moisture uptake, method 3; type: physicochemical; details: not ground
[6] = heat treatment: None; derived from example 1 and figures of WO 2005/107462; cited from earlier work
[7] = heat treatment: None; derived from example 1 and figures of WO 2005/107462; cited from earlier work; remark: listed apart in the source
[8] = heat treatment 115° C. for 24 h
[9] = after heat treatment 120° C. for 24 h
[10] = after heat treatment 150° C. for 1 h
[11] = ground in a mortar with pestle for about 10 min
[12] = made per example 2 of WO 2008/028859, after drying at 90° C. for 18 h
[13] = after heat treatment 120° C. for 20 h
[14] = after heat treatment 115° C. for 24 h

Compound | FWHM (manual mode) ([1]; heat treatment: None) | Moisture absorption at 65% RH ([2]; heat treatment: None) | Onset of trihydrate conversion (form A to form F) ([3]; heat treatment: None) | FWHM (automatic mode), XRPD peak around 8.7 ± 0.2° 2θ, Before [1] | Moisture absorption at 65% RH, Before [2] | also measured
O=C([O-])CCCCCCCNC(=O)c1ccccc1O.[Na+] [Batch 7, monosodium N-[8-(2-hydroxybenzoyl)-amino]caprylate] | 0.61 °2θ | 2.06% | 70 % RH | – | – | –
O=C([O-])CCCCCCCNC(=O)c1ccccc1O.[Na+] [Batch 8, monosodium N-[8-(2-hydroxybenzoyl)-amino]caprylate] | 0.82 °2θ | 2.51% | 70 % RH | – | – | FWHM (manual mode) [1, 8]: 0.47 °2θ; Moisture absorption at 65% RH [2, 8]: 0.99%; Onset of trihydrate conversion (form A to form F) [3, 8]: 80 % RH
O=C([O-])CCCCCCCNC(=O)c1ccccc1O.[Na+] [Batch 5, monosodium N-[8-(2-hydroxybenzoyl)-amino]caprylate] | – | – | – | 0.97 ° 2θ | 1.98% | FWHM (automatic mode), XRPD peak around 8.7 ± 0.2° 2θ, After [1, 9]: 0.58 ° 2θ; Moisture absorption at 65% RH, After [2, 9]: 0.94%
O=C([O-])CCCCCCCNC(=O)c1ccccc1O.[Na+] [Batch 2, monosodium N-[8-(2-hydroxybenzoyl)-amino]caprylate] | 0.84 °2θ | 2.90% | 70 % RH | 1.21 ° 2θ | 2.90% | FWHM (automatic mode), XRPD peak around 8.7 ± 0.2° 2θ, After [1, 10]: 0.42 ° 2θ; Polymorphic form, After [4]: A & B; Moisture absorption at 65% RH, After [2, 10]: 1.04%
O=C([O-])CCCCCCCNC(=O)c1ccccc1O.[Na+] [Batch 6, monosodium N-[8-(2-hydroxybenzoyl)-amino]caprylate] | 0.65 °2θ | 1.81% | 75 % RH | – | – | –
O=C([O-])CCCCCCCNC(=O)c1ccccc1O.[Na+] [Batch 10, monosodium N-[8-(2-hydroxybenzoyl)-amino]caprylate] | – | – | – | – | – | FWHM (auto mode) [1, 11]: 1.00 °2θ; FWHM (auto mode) ([1]; not ground): 0.79 °2θ; Moisture absorption at 60% RH [2, 11]: 2.99%; Moisture absorption at 60% RH [5]: 1.19%
O=C([O-])CCCCCCCNC(=O)c1ccccc1O.[Na+] [Batch 11, monosodium N-[8-(2-hydroxybenzoyl)-amino]caprylate, reference compound] | – | – | – | – | – | FWHM (auto mode) [1, 12]: 1.12 °2θ; Moisture absorption at 65% RH [2, 12]: 2.62%
O=C([O-])CCCCCCCNC(=O)c1ccccc1O.[Na+] [Batch 4, monosodium N-[8-(2-hydroxybenzoyl)-amino]caprylate] | – | – | – | 0.79 ° 2θ | 0.83% | FWHM (automatic mode), XRPD peak around 8.7 ± 0.2° 2θ, After [1, 13]: 0.58 ° 2θ; Moisture absorption at 65% RH, After [2, 13]: 0.84%
O=C([O-])CCCCCCCNC(=O)c1ccccc1O.[Na+] [Batch X, monosodium N-[8-(2-hydroxybenzoyl)-amino]caprylate] | – | – | – | – | – | FWHM (manual mode) [6]: 0.90 °2θ; Moisture absorption at 65% RH [7]: 1.50%
O=C([O-])CCCCCCCNC(=O)c1ccccc1O.[Na+] [Batch 9, monosodium N-[8-(2-hydroxybenzoyl)-amino]caprylate] | 0.60 °2θ | 1.29% | 80 % RH | – | – | FWHM (manual mode) [1, 8]: 0.52 °2θ; Moisture absorption at 65% RH [2, 8]: 0.98%; Onset of trihydrate conversion (form A to form F) [3, 8]: 80 % RH
O=C([O-])CCCCCCCNC(=O)c1ccccc1O.[Na+] [Batch 3, monosodium N-[8-(2-hydroxybenzoyl)-amino]caprylate] | 0.66 °2θ | 1.95% | 75 % RH | – | – | –
O=C([O-])CCCCCCCNC(=O)c1ccccc1O.[Na+] [Batch 1, monosodium N-[8-(2-hydroxybenzoyl)-amino]caprylate] | – | – | – | 1.08 ° 2θ | 2.66% | FWHM (automatic mode), XRPD peak around 8.7 ± 0.2° 2θ, After [1, 14]: 0.60 ° 2θ; Moisture absorption at 65% RH, After [2, 14]: 1.26%
